Assay results as given in publication PMC8472512, “Synthesis and Biochemical Evaluation of Baicalein Prodrugs” (Pharmaceutics, 2021).

How the values were obtained:
[1] = Metabolic stability in mouse liver S9 fractions; format: in vitro ADME; conditions: presence of the cofactor mixture (NADPH, UDPGA, PAPS, GSH), 37 °C, 60 min
Procedure: Working solutions of the test compounds (baicalein, 7-EC, and compounds 1–7) prepared in 50 vol% aqueous MeOH at 120 μM were added in triplicate to a 200 mM tris buffer (pH 7.4) containing mouse liver S9 fractions (1 mg protein/mL), alamethicin (25 μg/mL) and MgCl2 (2 mM). The final concentration of test compound was 3 μM. This mixture was pre-incubated at 37 °C in a shaking water bath for 5 min followed by addition of a cofactor mixture to following final concentrations: 1 mM NADPH, 0.5 mM UDPGA, 0.1 mM PAPS and 2.5 mM GSH. A 50 μL aliquot was taken at 0, 15, 30 and 60 min from each incubation mixture. These samples were then treated in the same way as described above in Mouse plasma stability assay. The supernatant was analyzed by Agilent 6530 Q−TOF LC−MS/MS system in a positive auto MS/MS scan mode. The liquid chromatography was conducted in the same condition as described above in mouse plasma stability assay. The analytical data were analyzed using Agilent MassHunter Quantitative Analysis Software (version B.05.00). MS chromatograms were extracted using calculated exact masses ([M+H]^+) for the analytes. Peak area ratios of the analytes vs. IS on the extracted MS chromatograms were used to calculate % remaining values at each time points.

in vitro = conditions: PAMPA
Procedure: The assay was conducted as reported previously [15]. The samples were analyzed as described below in mouse plasma stability assay.

[2] = logD7.4 by shake-flask method; format: physicochemical; conditions: 1-octanol / 0.1 M potassium phosphate buffer, 0.1 M phosphate buffer (pH 7.4), duplicate
Procedure: The assay was conducted as reported previously. Briefly, 100 µM test solutions were prepared by diluting 10 mM stock solutions of the test compounds (baicalein and compounds 1–7) in 0.1 M potassium phosphate buffer (pH 7.4) saturated with 1-octanol. Standard solutions were prepared by diluting each test solution with the same volume of DMSO in HPLC vials. Partition solutions were prepared by mixing each test solution and 1-octanol saturated with 0.1 M potassium phosphate buffer (pH 7.4) at three different volume ratios, namely 1:0.02, 1:0.2 and 1:2, in HPLC vials. The partition solutions were then vortexed for 1 h at 1500 rpm at rt. The standard solutions and the aqueous phase (bottom layer) of each partition solution were analyzed directly from the HPLC vials as described above in Chemical stability assay. The logD7.4 values were calculated by the following equation: logD7.4=log(2×As/Ap−1)·Vt/Vo where As and Ap are, respectively, the peak areas of the standard and the aqueous phase of the partition solutions and Vt and Vo the volumes of test solution and 1-octanol of the partition solutions.

[3] = Chemical stability in physiologically-relevant solutions; format: physicochemical; conditions: 37 °C; for remaining at 4 h, 10 μM: at 4 h vs time 0
Procedure: Stock solutions of the test compounds (baicalein, compounds 1–7) prepared in MeOH at 10 mM were diluted in 0.1 N HCl and 0.1 M potassium phosphate buffer (pH 6.5 and 7.4) in triplicate to a final concentration of 10 μM. The mixtures were then incubated at 37 °C in a shaking water bath. Samples taken at 0, 1, 2, 3 and 4 h were analyzed by Thermo UltiMate 3000 series HPLC system. Chromatographic separation was performed on an Agilent Eclipse Plus C18 column (100 × 4.6 mm, 3.5 µm) kept at 40 °C with isocratic elution at a flow rate of 0.6 mL/min using a mixture of 0.1 vol% TFA in deionized water and acetonitrile as the mobile phase. The detection wavelengths were 277 and 270 nm for baicalein and compounds 1–7, respectively. Peak areas of the analytes on the UV chromatograms were used to calculate % remaining values at each time points.
The stability of baicalein and of the synthesized carbamate prodrugs (1–7) was determined in solutions mimicking gastric (0.1 N HCl, pH ~ 1), intestinal (pH 6.5 phosphate buffer), and physiological (pH 7.4 phosphate buffer) conditions. […]. […] […]. The degradation of the carbamate prodrugs was accompanied by the formation of baicalein under all conditions in this study (data not shown). Although the exact reason for this pH-dependent stability remains unknown, it is plausible that the side chains of amino acids somehow affect the hydrolysis of the carbamate bond of the prodrugs.

[4] = Stability in mouse plasma; format: in vitro ADME
Procedure: Working solutions of the test compounds (baicalein, enalapril, and compounds 1–7) prepared in 50 vol% aqueous MeOH at 40 μM were diluted in mouse plasma in triplicate to a final concentration of 1 μM. The mixtures were then incubated at 37 °C in a shaking water bath. A 50 μL aliquot was removed at 0 and 60 min from each incubation mixture followed by immediate mixing with 150 μL ice-cold MeOH containing 1 μg/mL glipizide as the internal standard (IS). The resulting mixtures, following a 5-min vortexing and sonication, were then centrifuged at 3000 rpm for 30 min at 4 °C. The supernatant was analyzed by Agilent 6460 QQQ LC−MS/MS system in a positive multiple reaction monitoring (MRM) mode. Gradient elution was conducted on an Agilent Eclipse Plus C18 column (100 × 2.1 mm, 3.5 µm) at 40 °C with 0.1 vol% formic acid in deionized water and 0.1 vol% formic acid in acetonitrile running at 0.45 mL/min. MRM transitions of the analytes were set as follows: baicalein: m/z 271→123, enalapril: m/z 377→234, 1: m/z 428→271, 2: m/z 414→271, 3: m/z 428→271, 4: m/z 416→271, 5: m/z 462→271, 6: m/z 386→271, 7: m/z 372→271, and glipizide: m/z 446→321. The analytical data were analyzed using Agilent MassHunter Quantitative Analysis Software (version B.05.00). Peak area ratios of the analytes vs. IS on the MRM chromatograms were used to calculate % remaining at 60 min.

Mouse pharmacokinetics = format: in vivo, male ICR mice; conditions: for AUC(0-t) / Cmax / Tmax / AUC(0-inf) / half-life: male, ICR, mouse
Procedure: Pharmacokinetic studies were conducted with male ICR mice (8 weeks old; 30–35 g body wt.) purchased from Koatech Company (Pyeongtaek, Korea), as reported previously. Intravenous dosing solutions were prepared in EtOH/20% aqueous HPβCD (10/90 vol%) at 2 and 3 mg/mL for baicalein and compound 2, respectively. Oral dosing solutions were prepared in EtOH/tween 80/20% aqueous HPβCD (10/10/80 vol%) at 1 and 1.5 mg/mL for baicalein and compound 2, respectively. Plasma sample analysis was performed as described above in mouse plasma stability assay.

[5] = iv, plasma analyte after single i.v. dose of baicalein 10 mg/kg, mice
[6] = iv, plasma analyte after single i.v. dose of compound 2 15 mg/kg, mice
[7] = po, plasma analyte after single p.o. dose of compound 2 50 mg/kg, mice

O=c1cc(-c2ccccc2)oc2cc(O)c(O)c(O)c12 [Baicalein, 5,6,7-trihydroxy-2-phenyl-4H-1-benzopyran-4-one]
metabolism in mouse liver S9 fractions [1]: rapidly metabolized | Papp (in vitro): 57.5 ± 1.4 nm/s | logD [2]: 2.14 | half-life at 10 μM ([3]; 0.1 M potassium phosphate buffer, pH 6.5 buffer (0.1 M potassium phosphate)): > 4 h | remaining at 4 h, 10 μM ([3]; 0.1 M potassium phosphate buffer, pH 6.5 buffer): 101 ± 2.8% | half-life at 10 μM ([3]; 0.1 M potassium phosphate buffer, pH 7.4 buffer (0.1 M potassium phosphate)): > 4 h | remaining at 4 h, 10 μM ([3]; 0.1 M potassium phosphate buffer, pH 7.4 buffer): 65.8 ± 2.6% | half-life at 10 μM ([3]; pH 1, 0.1 N HCl, 10 μM): > 4 h | remaining at 4 h, 10 μM ([3]; pH 1, 0.1 N HCl): 104 ± 4.1% | remaining at 1 h, 1 μM ([4]; mouse, plasma): > 85% | time plasma analyte was above the quantitation limit (Mouse pharmacokinetics; after i.v. dose of compound 2 (approximately equimolar to 10 mg/kg baicalein), mice): 8 h | time plasma analyte was above the quantitation limit (Mouse pharmacokinetics; after p.o. administration of compound 2, mice): 8 h | time plasma analyte was above the quantitation limit (Mouse pharmacokinetics; after single i.v. dose of 10 mg/kg baicalein, mice): up to 15 min | time plasma analyte was above the quantitation limit (Mouse pharmacokinetics; after single p.o. dose of 10 mg/kg baicalein, mice, 24 h time course): below the quantitation limit | AUC(0-t) (Mouse pharmacokinetics; [5]): 1.09 ± 0.64 µg·h/mL | Cmax (Mouse pharmacokinetics; [5]): 1.47 ± 0.33 µg/mL | Tmax (Mouse pharmacokinetics; [5]): 0.1 h | AUC(0-inf) (Mouse pharmacokinetics; [6]): 4.39 ± 1.57 µg·h/mL | AUC(0-t) (Mouse pharmacokinetics; [6]): 4.24 ± 1.43 µg·h/mL | Cmax (Mouse pharmacokinetics; [6]): 4.19 ± 0.45 µg/mL | Tmax (Mouse pharmacokinetics; [6]): 0.1 h | half-life (Mouse pharmacokinetics; [6]): 1.5 ± 0.3 h | AUC(0-inf) (Mouse pharmacokinetics; [7]): 0.54 ± 0.15 µg·h/mL | AUC(0-t) (Mouse pharmacokinetics; [7]): 0.45 ± 0.14 µg·h/mL | Cmax (Mouse pharmacokinetics; [7]): 0.23 ± 0.09 µg/mL | Tmax (Mouse pharmacokinetics; [7]): 0.3 ± 0.09 h | half-life (Mouse pharmacokinetics; [7]): 2.6 ± 1.5 h

CCOC(=O)[C@H](CCc1ccccc1)N[C@@H](C)C(=O)N1CCC[C@H]1C(=O)O [Enalapril, enalapril]
% remaining in mouse plasma ([4]; 60 min incubation at 37 °C, 1 μM): degraded
